Experimental data taken from patent publication US7637980B2, “Method of increasing photosynthesis in plants comprising an exposure thereof to lipochitooligosaccharides and compositions therefor” (McGill University, priority 1999, dated 2009).

What was measured:
Assay type in all cases: in vivo
soybean (cv Bayfield) = assay: Photosynthesis of soybean after LCO foliar spray, greenhouse
Experimental: Soybean (cv Bayfield) seeds were surface sterilized with 2% sodium hypochlorite for 3-4 minutes, washed with several changes of sterile distilled water and germinated in plastic trays containing sterile vermiculite. Seedlings at the two-leaf stage, about seven days of planting, were transplanted into 15 cm plastic pots containing promix (Premier Brands Inc., New Rochelle, N.Y., USA). Pots were placed in a greenhouse maintained at 25±2° C. with a day/night cycle of 16/8 h. Plants were watered as required.
(§1) Concentrations of LCO (10^−6 M-10^−12 M) were made with distilled water containing 0.02% Tween 20. A control treatment, containing 0.02% Tween 20, but no LCO was also applied. Since the rates of growth and development differed among the plant species used in the experiments, spray treatment was conducted at different times after planting In general, the spray was applied when the plants were big enough to allow easy measurements of leaf photosynthetic rates. The following are the ages of the plants when the sprays were conducted: soybean 21 days after planting (DAP), corn 25 DAP, rice 45 DAP, melon (35 DAP) and canola 30 DAP. The plants were sprayed with LCO solutions until dripping. The sprays were applied with an atomizer (Nalgene, USA). Each plant required 2-3 mL of spray solution. Each treatment was replicated at least five times and organized on the green house bench in a randomized complete block design. Each experiment (with each crop species) was repeated at least twice.
(§2) Photosynthesis was recorded every 24 h using a Li-Cor 6400 portable photosynthesis system (Li-Cor Inc., Lincoln, Neb., USA) for 6 days. In the case of soybean the photosynthesis in the second nodal leaf from the top was recorded while in the other species used in the photosynthetic rate was measured for the top-most fully expanded leaf. Soybean plants were harvested after seven days of LCO treatment and dried at 80° C. for 48 h. Data were analyzed with the Statistical Analysis System (SAS Inc., N.C., USA). Percent increase in photosynthesis over the control was calculated.

[1] = system: melon (Cucumis melo cv Nova); assay: Photosynthesis of melon after LCO spray, greenhouse
Experimental: Seeds of rice (Oryza sativa cv Cypress), canola (Brassica napus cv Springfield), corn (Zea mays cv Pioneer 3921) and melon (Cucumis melo cv Nova) were surface sterilized with 2% sodium hypochlorite for 3-4 min, washed with several changes of sterile distilled water and planted in plastic pots (15 cm dia) containing promix (Premier Brands Inc., New Rochelle, N.Y., USA).
as §1, §2

[2] = system: soybean (cv OAC Bayfield); assay: Photosynthesis of soybean under field conditions (1999)
Experimental: (§3) The soybean experiment was conducted at the Lods Agronomy Research Centre, McGill University, Macdonald Campus, Ste-Anne-de-Bellevue, Quebec, Canada during the period June to September, 1999. A randomized complete block design with three blocks was followed. The plot size was 2×4 m with a row to row spacing of 25 cm and 10 cm between plants within a row. Seeds of soybean (cv OAC Bayfield), treated with commercial Bradyrhizobium japonicum inoculant (Bios Agriculture Inc., Quebec, Canada) at the rate of 3 g per kilogram of seed, were hand planted.
(§4) At 25 days after planting twenty plants in each plot were randomly marked and sprayed until dripping with LCO solutions (10^−6, 10^−8 and 10^−10M) containing 0.02% Tween 20 with a hand sprayer. The plants on either side, within the row, of the marked plants were also sprayed. A second spray was carried out at flowering stage and a third spray at pod filling.
(§5) As with the indoor experiments, photosynthetic readings were taken every day for five days after the application of LCO. For soybean additional developmental and agronomic data were collected. The first harvest was conducted at 25 days after the first spray treatment. Five plants were harvested from each plot and the following growth variables were analyzed: plant height, number of branches, number of leaves, leaf area, number of flower clusters, number of pods, number of nodules, dry weights of leaves, stem and roots. The final harvest was conducted after physiological maturity of the plants (Fehr et al., 1971); at this time the remaining fifteen treated plants from each plot were harvested and data on number of branches, number of pods, number of seeds and grain yield per plant was collected.

[3] = system: soybean (cv OAC Bayfield); assay: Growth and yield of soybean under field conditions (1999)
Experimental: as §3, §4, §5

Nod Bj V (C18:1, MeFeu)
photosynthesis (soybean (cv Bayfield); 10^−6 M, day 1 after treatment): 14.9 μmol m^−2 sec^−1
photosynthesis (soybean (cv Bayfield); 10^−6 M, day 2 after treatment): 12.1 μmol m^−2 sec^−1
photosynthesis (soybean (cv Bayfield); 10^−6 M, day 4 after treatment): 16.2 μmol m^−2 sec^−1
photosynthesis (soybean (cv Bayfield); 10^−6 M, day 5 after treatment): 16.7 μmol m^−2 sec^−1
photosynthesis (soybean (cv Bayfield); 10^−6 M, day 6 after treatment): 13.1 μmol m^−2 sec^−1
photosynthesis (soybean (cv Bayfield); 10^−7 M, day 1 after treatment): 12.1 μmol m^−2 sec^−1
photosynthesis (soybean (cv Bayfield); 10^−7 M, day 2 after treatment): 9.1 μmol m^−2 sec^−1
photosynthesis (soybean (cv Bayfield); 10^−7 M, day 4 after treatment): 12.9 μmol m^−2 sec^−1
photosynthesis (soybean (cv Bayfield); 10^−7 M, day 5 after treatment): 14.1 μmol m^−2 sec^−1
photosynthesis (soybean (cv Bayfield); 10^−7 M, day 6 after treatment): 11.1 μmol m^−2 sec^−1
photosynthesis (soybean (cv Bayfield); 10^−8 M, day 1 after treatment): 13.8 μmol m^−2 sec^−1
photosynthesis (soybean (cv Bayfield); 10^−8 M, day 2 after treatment): 8.1 μmol m^−2 sec^−1
photosynthesis (soybean (cv Bayfield); 10^−8 M, day 4 after treatment): 12.3 μmol m^−2 sec^−1
photosynthesis (soybean (cv Bayfield); 10^−8 M, day 5 after treatment): 16.4 μmol m^−2 sec^−1
photosynthesis (soybean (cv Bayfield); 10^−8 M, day 6 after treatment): 10.3 μmol m^−2 sec^−1
photosynthesis (soybean (cv Bayfield); 10^−9 M, day 1 after treatment): 15.8 μmol m^−2 sec^−1
photosynthesis (soybean (cv Bayfield); 10^−9 M, day 2 after treatment): 8.4 μmol m^−2 sec^−1
photosynthesis (soybean (cv Bayfield); 10^−9 M, day 4 after treatment): 15.7 μmol m^−2 sec^−1
photosynthesis (soybean (cv Bayfield); 10^−9 M, day 5 after treatment): 17.5 μmol m^−2 sec^−1
photosynthesis (soybean (cv Bayfield); 10^−9 M, day 6 after treatment): 11.2 μmol m^−2 sec^−1
photosynthesis (soybean (cv Bayfield); 10^−10 M, day 1 after treatment): 13.6 μmol m^−2 sec^−1
photosynthesis (soybean (cv Bayfield); 10^−10 M, day 2 after treatment): 8.7 μmol m^−2 sec^−1
photosynthesis (soybean (cv Bayfield); 10^−10 M, day 4 after treatment): 14.6 μmol m^−2 sec^−1
photosynthesis (soybean (cv Bayfield); 10^−10 M, day 5 after treatment): 16.9 μmol m^−2 sec^−1
photosynthesis (soybean (cv Bayfield); 10^−10 M, day 6 after treatment): 11.2 μmol m^−2 sec^−1
photosynthesis (soybean (cv Bayfield); 10^−11 M, day 1 after treatment): 14.0 μmol m^−2 sec^−1
photosynthesis (soybean (cv Bayfield); 10^−11 M, day 2 after treatment): 8.7 μmol m^−2 sec^−1
photosynthesis (soybean (cv Bayfield); 10^−11 M, day 4 after treatment): 17.4 μmol m^−2 sec^−1
photosynthesis (soybean (cv Bayfield); 10^−11 M, day 5 after treatment): 17.9 μmol m^−2 sec^−1
photosynthesis (soybean (cv Bayfield); 10^−11 M, day 6 after treatment): 12.5 μmol m^−2 sec^−1
photosynthesis (soybean (cv Bayfield); 10^−12 M, day 1 after treatment): 15.0 μmol m^−2 sec^−1
photosynthesis (soybean (cv Bayfield); 10^−12 M, day 2 after treatment): 10.3 μmol m^−2 sec^−1
photosynthesis (soybean (cv Bayfield); 10^−12 M, day 4 after treatment): 16.9 μmol m^−2 sec^−1
photosynthesis (soybean (cv Bayfield); 10^−12 M, day 5 after treatment): 17.0 μmol m^−2 sec^−1
photosynthesis (soybean (cv Bayfield); 10^−12 M, day 6 after treatment): 12.0 μmol m^−2 sec^−1
increase in photosynthetic rate (soybean (cv Bayfield); LCO spray, greenhouse, on an average): 50%
intercellular CO2 concentration [1]: unaffected
stomatal conductance [1]: increases
transpiration [1]: increases
increase in photosynthesis ([1]; in general): 10-20%
stomatal conductance [2]: increases
transpiration [2]: increased
photosynthetic rate ([2]; 10^−6 M, day three): 24 µmol m^−2 s^−1
Leaf area/Plant ([3]; LCO 10^−6 M, field): 2306.3 cm^2
No. Branches/Plant ([3]; LCO 10^−6 M, field): 4.2
No. Leaves/Plant ([3]; LCO 10^−6 M, field): 29.4
No. Nodules/Plant ([3]; LCO 10^−6 M, field): 63.5
No. Pod clusters/Plant ([3]; LCO 10^−6 M, field): 24.3
No. Pods/Plant ([3]; LCO 10^−6 M, field): 42.9
No. seeds/Plant ([3]; LCO 10^−6 M, field): 104.7
Plant height ([3]; LCO 10^−6 M, field): 78.5 cm
Root Dry weight/plant ([3]; LCO 10^−6 M, field): 3.0 gm
Seed yield/plant ([3]; LCO 10^−6 M, field): 22.1 gm
Shoot dry weight/Plant ([3]; LCO 10^−6 M, field): 24.7 gm
Leaf area/Plant ([3]; LCO 10^−8 M, field): 2120.4 cm^2
No. Branches/Plant ([3]; LCO 10^−8 M, field): 5.1
No. Leaves/Plant ([3]; LCO 10^−8 M, field): 25.4
No. Nodules/Plant ([3]; LCO 10^−8 M, field): 84.6
No. Pod clusters/Plant ([3]; LCO 10^−8 M, field): 24.8
No. Pods/Plant ([3]; LCO 10^−8 M, field): 42.4
No. seeds/Plant ([3]; LCO 10^−8 M, field): 106.3
Plant height ([3]; LCO 10^−8 M, field): 85.8 cm
Root Dry weight/plant ([3]; LCO 10^−8 M, field): 2.3 gm
Seed yield/plant ([3]; LCO 10^−8 M, field): 21 gm
Shoot dry weight/Plant ([3]; LCO 10^−8 M, field): 23.7 gm
Leaf area/Plant ([3]; LCO 10^−10 M, field): 1513.1 cm^2
No. Branches/Plant ([3]; LCO 10^−10 M, field): 3.4
No. Leaves/Plant ([3]; LCO 10^−10 M, field): 22.2
No. Nodules/Plant ([3]; LCO 10^−10 M, field): 68.3
No. Pod clusters/Plant ([3]; LCO 10^−10 M, field): 28.3
No. Pods/Plant ([3]; LCO 10^−10 M, field): 48.0
No. seeds/Plant ([3]; LCO 10^−10 M, field): 118.1
Plant height ([3]; LCO 10^−10 M, field): 83.5 cm
Root Dry weight/plant ([3]; LCO 10^−10 M, field): 2.3 gm
Seed yield/plant ([3]; LCO 10^−10 M, field): 22.6 gm
Shoot dry weight/Plant ([3]; LCO 10^−10 M, field): 19.8 gm
Plant height ([3]; field 1999, LCO treatment vs control): not affected
grain yield enhanced by ([3]; field, spray at seedling, flowering and podfilling stages): 33-44%
